This note sets out measurements from patent publication US12662497B2, “Benzazepine compounds, preparation method therefor and pharmaceutical use thereof” (Shanghai Senhui Medicine Co., Ltd., priority 2021, dated 2026).

Series [1] can be described thus: Pharmacokinetic study in rats (Test Example 3), intravenous injection. The class given is in vivo. The settings on record: SD rats. An excerpt: 1.1.1. Experimental Animals: SD Rats, Male and Female, Weighing about 220 g. Housing Environment: SPF. The Animals were Transferred from the Animal Repository (999M-017) of the Laboratory Animal Management Department, Shanghai Institute of Planned Parenthood Research. 1.1.2. Administration Regimen:
A proper amount of the compound was accurately weighed out and well mixed with a proper volume of 10% DMSO+35% PEG400+55% normal saline by vortexing or ultrasonication to give a clear solution for intravenous injection.
Blood was collected at various time points after intravenous injection (before the administration and 0.0833, 0.25, 0.5, 1, 2, 4, 8 and 24 h after the administration). EDTA-K2 was used as the anticoagulant, and the esterase inhibitor DDVP was added. Plasma samples were separated and cryopreserved at −70° C., and the compound and tolvaptan levels were determined by LC-MS/MS.

Series [2] can be described thus: Pharmacokinetic study in rats (Test Example 4), intragastric administration. Format: in vivo. The settings on record: Sprague-Dawley, rat, plasma, SD rats, mean value. How it is done:
1.1.1. Experimental Animals: SD Rats, Male and Female, Weighing about 180-220 g. Housing Environment: SPF. The Animals were Transferred from the Animal Repository (999M-017) of the Laboratory Animal Management Department, Shanghai Institute of Planned Parenthood Research. 1.1.2. Administration Regimen:
Tolvaptan and compound 5 were intragastrically administrated. Blood was collected before the administration and 10 min, 0.5 h, 1 h, 2 h, 4 h, 6 h, 8 h and 24 h after the administration. EDTA-K2 was used as the anticoagulant, and the esterase inhibitor DDVP was added. Plasma samples were separated and cryopreserved at −70° C., and the compound 5 and tolvaptan levels were determined by LC-MS/MS.

Series [3] can be described thus: Pharmacokinetic study in dogs (Test Example 1), intragastric administration. The class given is in vivo. The settings on record: beagles; for AUC(0-inf) / AUC(0-t) / Cmax / Tmax / half-life: beagle, dog, plasma, mean value. The procedure:
(§1) 1.1.1. Experimental Animals: Beagles, Non-Naïve, Sourced from the Animal Repository of Medicilon: 999M-004.
A proper amount of tolvaptan and compound 5 was accurately weighed out and well mixed with a proper volume of 1% hydroxypropyl methylcellulose by vortexing or ultrasonication to give a 0.5 mg/mL solution of tolvaptan and a 2.15 mg/mL solution of compound 5 for intragastric administration.
Tolvaptan and compound 5 were intragastrically administrated. Blood was collected before the administration and 10 min, 30 min, 1 h, 2 h, 4 h, 6 h, 8 h and 24 h after the administration. EDTA-K2 was used as the anticoagulant, and the esterase inhibitor DDVP (manufacturer: Sigma) was added. Plasma samples were separated and cryopreserved at −70° C., and the compound 5 and tolvaptan levels were determined by LC-MS/MS.

A short description of series [4]: Pharmacokinetic study in beagles (Test Example 5), intravenous drip and intragastric administration. The class given is in vivo. The note with it: for AUC(0-t) / Cmax / Tmax / half-life: beagle, dog, plasma. The procedure: as §1
(§2) A proper amount of compound 1b disodium salt and compound 5 was accurately weighed out and well mixed with a proper volume of normal saline by vortexing or ultrasonication to give a 0.5 mg/mL clear solution of compound 1b disodium salt, a 0.25 mg/mL clear solution of compound 5 and a 1.35 mg/mL clear solution of compound 5 for intravenous drip administration.
(§3) A proper amount of tolvaptan and compound 5 was accurately weighed out and well mixed with a proper volume of 1% hydroxypropyl methylcellulose by vortexing or ultrasonication to give a 5 mg/mL solution of tolvaptan and a 1.35 mg/mL solution of compound 5 for intragastric administration.
(§4) The compounds of the intravenous administration group were administered via an intravenous drip over 1 h. The compounds of the intragastric administration group were intragastrically administered. Time points of blood collection were: before the administration and 30 min, 1 h, 1.5 h, 2 h, 4 h, 6 h, 12 h and 24 h after the administration. About 1 mL of blood was collected via the jugular vein or in other suitable ways. EDTA-K2 was used as the anticoagulant, and the esterase inhibitor DDVP was added. Plasma samples were separated and cryopreserved at −70° C., and the levels of related compounds in vivo were determined by LC-MS/MS. About 0.5 mL of blood was collected via the jugular vein or in other suitable ways, placed into separator gel blood collection tubes (without an anticoagulant) and centrifuged at room temperature at 3500 rpm for 10 min to separate the serum, and the concentration of Na^+ in the serum was determined by using the ion-selective electrode method.

For series [5], the target named is T1, Arginine vasopressin receptor 2 (AVPR2) (Homo sapiens, UniProt P30518).
T1 construct: host or cells: Flpin-CHO (CHO cells)
The series can be described thus: Arginine vasopressin receptor 2 (AVPR2) receptor cAMP assay in Flpin-CHO-AVPR2 cells. Format: cell-based, humans. The settings on record: arginine vasopressin stimulation. (cAMP levels reflect the balance of adenylyl cyclase and phosphodiesterase activity.)
Protocol: The test compound was 5-fold diluted with assay buffer (Hank's balanced salt solution+20 mM HEPES+0.1% BSA+500 μM IBMX (manufacturer: Sigma)). The highest initial concentration of the test compound in the assay was 10 μM.
Flpin-CHO-AVPR2 (the cell strain was constructed by Pharmaron Beijing Co., Ltd.; AVPR2 was derived from humans)
• 1) Cells were digested, resuspended in assay buffer and inoculated into a 384-well cell culture plate at a density of 8000 cells per well and a volume of 15 μL per well. • 2) The compound was diluted with assay buffer. • 3) 2.5 μL of the compound was added to each well, and the plate was incubated at 37° C. for 10 min. • 4) Arginine vasopressin (manufacturer: MedChemExpress) was diluted with assay buffer to a concentration of 16 μM. • 5) 2.5 μL of the 16 μM solution of arginine vasopressin was added, and the plate was incubated at 37° C. for 30 min. • 6) Eu-cAMP tracer and Ulight-anti-cAMP were thawed and diluted with lysis buffer (Eu-cAMP tracer, Ulight-anti-cAMP and lysis buffer were all taken from the cAMP assay kit (manufacturer: Perkin Elmer)). • 7) 10 μL of Eu-cAMP tracer was added to the experimental wells, and then 10 μL of Ulight-anti-cAMP was added to the experimental wells. • 8) The reaction plate was centrifuged at room temperature at 200 g for 30 s and left at 25° C. for 1 h, and data collection was performed using a microplate reader.

Series [6] concerns beagles. The series can be described thus: Blood sodium level (serum Na+, ion-selective electrode) in beagles (Test Example 5). Format: in vivo. The settings on record: compound 5 administered intragastrically 2.7 mg/kg, FIG. 1. The procedure: as §2, §3
as §4, with “Time points of blood collection were: before the administration and 30 min, 1 h, 1.5 h, 2 h, 4 h, 6 h, 12 h and 24 h after the administration. About 1 mL of blood was collected via the jugular vein or in other suitable ways. EDTA-K2 was used as the anticoagulant, and the esterase inhibitor DDVP was added.” left out

[7] abbreviates: both sexes, Sprague-Dawley, rat, plasma, iv, Compound M i.v. 3.91 mg/kg, molecule detected Compound M, mean value.
[8] abbreviates: female, Tolvaptan PO 9 mg/kg, molecule detected Tolvaptan.
[9] abbreviates: male, Tolvaptan PO 9 mg/kg, molecule detected Tolvaptan.
Setting [10] is: Tolvaptan administered PO 1 mg/kg, molecule detected Tolvaptan.
Where [11] appears, read: po, Tolvaptan 10 mg/kg p.o., molecule detected Tolvaptan, mean value.
Where [12] appears, read: female, Compound 5 PO 12.9 mg/kg, molecule detected Compound 5.
Where [13] appears, read: male, Compound 5 PO 12.9 mg/kg, molecule detected Compound 5.
[14] abbreviates: Compound 5 administered PO 4.3 mg/kg, molecule detected Compound 5.
Setting [15] is: intragastric, tolvaptan converted in vivo from compound 5 vs tolvaptan administered.
The mark [16] stands for this setting: iv, Compound 5 0.5 mg/kg i.v. drip over 1 h, molecule detected Compound 5, mean value.
Setting [17] is: iv, Compound 5 2.7 mg/kg i.v. drip over 1 h, molecule detected Compound 5, mean value.
The mark [18] stands for this setting: po, Compound 5 2.7 mg/kg p.o., molecule detected Compound 5, mean value.

Molecules are shown by their SMILES. pIC50: −log10 of the molar value.

As usually defined, the AUC(0-inf) is total exposure, with the tail of the curve extrapolated. As a reminder, the AUC(0-t) is exposure summed from dosing to a finite time, without extrapolation to infinity. Read a high AUC(0-t) as high exposure. One may read the Cmax as the highest concentration seen after dosing. The Tmax is the time at which the peak concentration occurs. A word on the clearance: it is the rate of elimination divided by the concentration. The low end stands for inefficient removal, the high end for efficient removal. The term half-life denotes how long it takes for the measured level to halve. Lower therefore signals rapid decline. The term pIC50 denotes the negative decadic logarithm of the IC50, by convention in mol/L.

T1 sequence (P30518 whole entry): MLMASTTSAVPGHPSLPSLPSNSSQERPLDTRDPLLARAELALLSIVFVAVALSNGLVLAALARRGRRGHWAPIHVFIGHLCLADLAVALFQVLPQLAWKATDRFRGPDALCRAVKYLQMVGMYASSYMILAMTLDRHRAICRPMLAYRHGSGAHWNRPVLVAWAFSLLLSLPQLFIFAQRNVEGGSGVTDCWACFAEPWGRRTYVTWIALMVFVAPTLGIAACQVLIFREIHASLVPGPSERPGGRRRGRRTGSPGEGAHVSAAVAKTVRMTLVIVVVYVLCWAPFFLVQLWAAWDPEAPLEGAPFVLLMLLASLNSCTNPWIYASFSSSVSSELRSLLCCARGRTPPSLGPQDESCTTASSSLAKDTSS

For the compound `Cc1ccccc1C(=O)Nc1ccc(C(=O)N2CCCC(OC(=O)[C@@H](N)C(C)C)c3cc(Cl)ccc32)c(C)c1` (stereo partly drawn) [Compound M], in series [1] (setting [7]), the AUC(0-inf) is 824 ng·h/mL, the AUC(0-t) came out at 786 ng·h/mL, the peak level (Cmax) was 719 ng/mL and the Tmax is 8.34 min. In series [1] (setting [7]), this compound showed a clearance of 90.8 mL/min/kg and a half-life of 1.17 h. Moreover, in series [1] (both sexes, Sprague-Dawley, rat, plasma, iv, Compound M i.v. 3.91 mg/kg, molecule detected Compound M, mean value, read-out: Vss), the Vd turned out to be 6.47 L/kg.

In the case of `Cc1ccccc1C(=O)Nc1ccc(C(=O)N2CCCC(O)c3cc(Cl)ccc32)c(C)c1` (stereo not drawn) [Tolvaptan, reference compound], in series [2] (setting [8]), the AUC(0-t) was determined as 1820 ng·h/mL, the maximum concentration (Cmax) stood at 412 ng/mL, the Tmax worked out at 2 h and the half-life was 2.64 h. Also, in series [2] (setting [9]), the AUC(0-t) came to 55.5 ng·h/mL, the highest level (Cmax) was 20.3 ng/mL and the Tmax came out at 1.67 h. In addition, in series [3] (setting [10]), the AUC(0-inf) is 26.3 ng·h/mL, the AUC(0-t) amounted to 21.6 ng·h/mL, the peak level (Cmax) was 7.08 ng/mL and the Tmax was 1.5 h. This compound also gave a half-life in series [3] (setting [10]) of 1.94 h. In series [4] (setting [11]), the AUC(0-t) came to 10.2 ng·h/mL, the Cmax came to 3.83 ng/mL, the Tmax was 1.17 h and the half-life is 2.61 h.

For `Cc1ccccc1C(=O)Nc1ccc(C(=O)N2CCCC(OCOP(=O)(O)OCC[N+](C)(C)C)c3cc(Cl)ccc32)c(C)c1` (stereo not drawn) [Compound 5, ((7-Chloro-1-(2-methyl-4-(2-methylbenzamido)benzoyl)-2,3,4,5-tetrahydro-1H-benzo[b]azepin-5-yl)oxy)methyl (2-(trimethylammonio)ethyl) phosphate], the AUC(0-t) came out at 58.4 ng·h/mL in series [2] (setting [12]); 46.1 ng·h/mL in series [2] (setting [13]); 156 ng·h/mL in series [3] (setting [14]); 1200 ng·h/mL in series [4] (setting [16]); 7850 ng·h/mL in series [4] (setting [17]); 122 ng·h/mL in series [4] (setting [18]). Moreover, the Cmax came out at 50.1 ng/mL in series [2] (setting [12]); 44.4 ng/mL in series [2] (setting [13]); 88.7 ng/mL in series [3] (setting [14]); 889 ng/mL in series [4] (setting [16]); 5700 ng/mL in series [4] (setting [17]); 61.5 ng/mL in series [4] (setting [18]). For the same compound, the Tmax was determined as 0.167 h in series [2] (setting [12]); 0.167 h in series [2] (setting [13]); 0.389 h in series [3] (setting [14]); 1 h in series [4] (setting [16]); 1 h in series [4] (setting [17]); 0.5 h in series [4] (setting [18]). The half-life was 1.67 h in series [2] (setting [12]); 1.55 h in series [2] (setting [13]); 1.43 h in series [3] (setting [14]); 0.704 h in series [4] (setting [16]); 0.647 h in series [4] (setting [17]); 1 h in series [4] (setting [18]). Further, the AUC(0-inf) in series [3] (setting [14]) came out at 162 ng·h/mL. Moreover, in series [3] (setting [15]), the “exposure compared with tolvaptan” value is on record as “higher exposure”. In addition, in series [3] (setting [15]), the “half-life compared with tolvaptan” value was “longer half-life”. Also, the “AUC0-t of tolvaptan converted from compound 5 compared with tolvaptan administered intragastrically” value in series [4] (intragastric, compound 5 at a relatively low molar dose (2.7 mg/kg vs tolvaptan 10 mg/kg)) is on record as “higher AUC0-t”. Further, in series [5], the pIC50 was 8.10. Moreover, the “elevating the blood sodium level” value in series [6] is reported as “has the effect of elevating the blood sodium level”.

In the case of `Cc1ccccc1C(=O)Nc1ccc(C(=O)N2CCCC(OC(=O)OCOC(=O)C(N)C(C)C)c3cc(Cl)ccc32)c(C)c1.Cl` (stereo not drawn) [Hydrochloride of Compound 16], the “plasma level of administered molecule” value in series [1] (Hydrochloride of Compound 16 i.v. 4.41 mg/kg, molecule detected Hydrochloride of Compound 16) is recorded as “Undetectable”.
